Laboratory results published in patent US11459375B2, “Cyclic peptides for the treatment of Graves' disease” (advanceCOR GmbH, priority 2017, dated 2022).
Peptide text beside a SMILES is read from it.

Legend:
Ad-TSHR-immunized mice = experiment: ventricular myocardial volumes from digitized cross-sectional LV areas; type: in vivo, BALB/c mice; conditions: 1 mg/kg IV 4-weekly, end of experiment
Experimental: In FIG. 7 the effect of the peptide therapy on heart rates at various times during the experiment (A), and on heart weights (B) and cardiac ventricular volumes (C) at the end of the experiment were evaluated in all animals. The measurements were carried out in Ad-TSHR-immunized mice treated by either 4-weekly injections with vehicle (0.9% NaCl, “Graves' no therapy”, n=25 mice), or administrations of 1 mg/kg body weight of peptide of the invention 836 (12 mice), or of peptide 829 (13 mice), or TSHR-Fc (18 mice). In addition, age-matched immunologically naïve unimmunized mice (“healthy”, 19 animals) were investigated. Data are represented as mean±SEM. […]
After euthanasia, dissection of the thyroid glands was performed under a stereomicroscope, as described before (22). […] Thyroid volumes (mm^3) were calculated from the sum of the areas of each section over the whole cutting region. Myocardial volumes (mm^3) were calculated in a similar way as described for thyroid glands from the sum of the areas of each section over whole cutting region (5 to 6 slides, depending on respective size of the hearts). […]

[1] = test system: immunologically naïve mice; experiment: tolerability and immunogenicity study in immunologically naive mice; conditions: for clinical findings / tolerability: 1 mg/kg bw IV, monthly administrations for 6 months
Experimental: BALB/c mice were adapted for at least one week to start experiments at the age of 12 weeks. Animals were kept as described before. […] Peptides (either 1 mg/kg body weight or NaCl vehicle control) were given by IV injection into a tail vein of these naïve mice (n=5 per group), and then continued at 4-weekly intervals for 6 months, as described before for the therapeutic study in immunized mice. Serum samples were taken at identical intervals.
1) “3rd generation assay”: Antibodies against TSHR were detected by a commercially available 3rd generation enzyme immunoassay provided by RSR Limited, Avenue Park, Pentwyn, Cardiff, U.K., in which the of the human Graves patient-derived M22 monoclonal antibody and serum antibodies compete for binding sites on immobilized TSHR. […] The assay was performed using 30 μl 1:10 (PBS) diluted serum in at least double determination according to the manufacturer's instructions.

[2] = test system: CHO cells expressing the human TSHR; experiment: capacity of serum anti-TSHR antibodies from treated mice to stimulate cAMP in test cells; design: species or system BALB/c mice; conditions: serum of in vivo treated Ad-TSHR-immunized mice, 1 mg/kg IV 4-weekly
Experimental: The measurements were carried out in Ad-TSHR-immunized mice treated by either 4-weekly injections with vehicle (0.9% NaCl, “Graves' no therapy”, n=25 mice), or administrations of 1 mg/kg body weight of peptide of the invention 836 (12 mice), or of peptide 829 (13 mice), or TSHR-Fc (18 mice), or of control peptide 835 (13 mice). In addition, age-matched immunologically naïve unimmunized mice (“healthy”, 19 animals) were investigated. Data are represented as mean±SEM. Differences between groups were tested by AVOVA followed by post hoc LSD testing.**p<0.005 compared to the TSHR-immunized group treated with only NaCl (“Graves' no therapy”). […]
Anti-TSHR autoantibody titers and potency of antibodies to stimulate TSHR-dependent cAMP levels in test cells were determined before start of immunisation (basal value), 56 days after first immunisation, 133 days after first immunisation, and 189 days after first immunisation, and at the end of experiment. […]
2) Thyroid stimulating antibodies in the serum of hyperthyroid mice were analysed by measuring cyclic adenosine monophosphate (cAMP) generation in Chinese hamster ovary (CHO) cells JP2626 expressing the human TSHR (kindly provided by Dr. Gilbert Vassart, Brussels, Belgium). […]

| Compound | ventricular myocardial volumes (Ad-TSHR-immunized mice) | clinical findings / tolerability [1] | maximum TSHR-dependent cAMP levels induced in test cells by mouse serum [2] | anti-TSHR antibody titers in naive mice ([1]; 1 mg/kg IV monthly, 6 month observation period) | naive mice with anti-TSHR antibody titers above cut-off limit ([1]; 1 mg/kg IV, after 3 administrations) |
| --- | --- | --- | --- | --- | --- |
| CC[C@H](C)[C@@H]1NC(=O)[C@H](C(C)C)NC(=O)[C@H]([C@@H](C)O)NC(=O)[C@H](CC(C)C)NC(=O)[C@H](Cc2ccc(O)cc2)NC(=O)[C@H](CCCCN)NC(=O)[C@H](CC(N)=O)NC(=O)[C@H](CCCCN)NC(=O)[C@H](CC(N)=O)NC(=O)[C@H](CC(C)C)NC(=O)[C@H](Cc2ccc(O)cc2)NC(=O)[C@H](C(C)C)NC(=O)[C@H](C)NC(=O)[C@H](CC(=O)O)NC(=O)[C@H](CC(C)C)NC(=O)[C@H](CCCCN)NC(=O)[C@H]([C@@H](C)O)NC(=O)CNC(=O)[C@H](CC(N)=O)NC(=O)[C@H](Cc2ccccc2)NC(=O)[C@H](C)NC(=O)[C@H](Cc2ccc(O)cc2)NC(=O)CNC(=O)[C@H](CC(=O)O)NC1=O [peptide 836] (cyclo(GYAFNGTKLDAVYLNKNKYLTVID)) | significantly reduced ventricular myocardial volumes | no pathological clinical findings were observed |  |  |  |
| SPPCECHQEEDFRVTCKDIQRIPS [peptide 829] |  |  | not significantly different from controls |  |  |
| TSHR-Fc: fusion protein: first 289 amino acids of human TSH receptor (A-subunit), GGR linker and Fc portion of human IgG2 | significantly reduced ventricular myocardial volumes | developed clinical signs of allergy immediately after 4 administrations | not affected | significantly (p<0.001) higher than in cyclic peptide-treated or vehicle-treated control mice | 3 out of 6 |
